These results are taken from ChEMBL document CHEMBL1142856, “Design, synthesis, and structure-activity relationship of podocarpic acid amides as liver X receptor agonists for potential treatment of atherosclerosis” (Bioorg Med Chem Lett, 2005).

Assay [1] deals with T1, Oxysterols receptor LXR-beta (Homo sapiens) (UniProt P55055).
T1 sequence (whole entry): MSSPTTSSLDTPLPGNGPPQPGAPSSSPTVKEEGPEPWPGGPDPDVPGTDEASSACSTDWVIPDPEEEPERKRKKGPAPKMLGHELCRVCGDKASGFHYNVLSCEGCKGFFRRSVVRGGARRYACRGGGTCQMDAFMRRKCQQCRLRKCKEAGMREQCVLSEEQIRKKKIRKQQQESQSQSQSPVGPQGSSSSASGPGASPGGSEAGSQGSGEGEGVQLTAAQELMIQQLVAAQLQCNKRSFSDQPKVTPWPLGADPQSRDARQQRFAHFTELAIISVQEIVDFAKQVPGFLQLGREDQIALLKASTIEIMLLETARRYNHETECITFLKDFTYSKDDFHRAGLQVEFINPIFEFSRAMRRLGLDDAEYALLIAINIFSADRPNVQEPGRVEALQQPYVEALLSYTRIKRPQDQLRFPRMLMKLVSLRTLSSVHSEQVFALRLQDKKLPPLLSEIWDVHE
Description: TA max fold induction against LXR beta

Assay [2] has as its target T2, Oxysterols receptor LXR-alpha (Homo sapiens) (UniProt Q13133).
T2 sequence (whole entry): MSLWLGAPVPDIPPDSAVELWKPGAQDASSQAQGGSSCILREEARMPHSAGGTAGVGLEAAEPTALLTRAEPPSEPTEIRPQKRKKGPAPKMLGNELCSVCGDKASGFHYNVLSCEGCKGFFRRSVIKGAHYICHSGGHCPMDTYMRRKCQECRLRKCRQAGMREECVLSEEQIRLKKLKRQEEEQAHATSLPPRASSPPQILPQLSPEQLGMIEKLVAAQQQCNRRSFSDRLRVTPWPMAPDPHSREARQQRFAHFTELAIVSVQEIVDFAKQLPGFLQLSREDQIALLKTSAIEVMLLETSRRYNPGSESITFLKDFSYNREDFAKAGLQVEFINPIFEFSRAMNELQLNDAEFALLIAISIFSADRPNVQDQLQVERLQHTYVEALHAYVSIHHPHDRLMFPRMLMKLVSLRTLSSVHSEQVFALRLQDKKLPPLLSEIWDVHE
Description: TA max fold induction against LXR alpha

For assay [3], the target named is T3, Oxysterols receptor LXR-alpha (Homo sapiens, UniProt Q13133).
T3 sequence (Q13133 whole entry): T2 sequence (whole entry)
In words: Effective concentration in recombinant human LXRalpha ligand binding domain in homogeneous time-resolved fluorescence assay.

Assay [4] has as its target T4, Oxysterols receptor LXR-beta (Homo sapiens, UniProt P55055).
T4 sequence (P55055 whole entry): T1 sequence (whole entry)
Description: Effective concentration in recombinant human LXRbeta ligand binding domain in homogeneous time-resolved fluorescence assay.

The target of assay [5] is T4, Oxysterols receptor LXR-beta. Description: Inhibitory concentration in LXRSPA beta binding assay.
For assay [6], the target named is T3, Oxysterols receptor LXR-alpha. Description: Inhibitory concentration in LXRSPA alpha binding assay.

SMILES strings stand for the structures. pEC50, pIC50: −log10 of the molar value.

Consider `CC(=O)Oc1ccc2c(c1)[C@@]1(C)CCCC(C)(C(=O)OC(=O)[C@@]3(C)CCC[C@]4(C)c5cc(OC(C)=O)ccc5CC[C@@H]34)[C@@H]1CC2` (stereo partly specified), for which the Induction in assay [1] worked out at 54; in assay [2] it was 60.

As to `C=CCOC(=O)[C@@]1(C)CCC[C@]2(C)c3cc(O)ccc3CC[C@@H]12`, the pEC50 in assay [3] and in assay [4] was less than 4.30 each time. For the same compound, the pIC50 in assay [5] and in assay [6] was less than 4.82 each time.
